# Data reported in patent US11427615B2, “Peptide compound and application thereof, and composition containing peptide compound” (XDCEXPLORER (SHANGHAI) CO., LTD., priority 2017, dated 2022).
# Non-standard residues stand in square brackets, D forms with d. Residues, ends and D or L forms follow the SMILES beside them. *: point of attachment. X13 = CCCCCCCCCCCCCCCCSC1CC(=O)N(CCOCCOCCOCCOCCOCCOCCOCCOCCC(=O)*)C1=O; X1 = CCCCCCCCCCCC(=O)NCCOCCOCCOCCOCCOCCSC1CC(=O)N(CCCC(=O)*)C1=O; X8 = CCCCCCCCCCCCCCCCc1cn(CCOCCOCCOCCOCCOCCOCCOCCOCCC(=O)*)nn1; Ala(4-thiazolyl) = N[C@@H](Cc1cscn1)C(=O)O; PEG8 = NCCOCCOCCOCCOCCOCCOCCOCCOCCC(=O)O; dPhe(4-Cl) = N[C@H](Cc1ccc(Cl)cc1)C(=O)O; Phe(4-F) = N[C@@H](Cc1ccc(F)cc1)C(=O)O; 2Nal = N[C@@H](Cc1ccc2ccccc2c1)C(=O)O; Arg(Me) = CNC(=N)NCCC[C@H](N)C(=O)O; Ala(cPr) = N[C@@H](CC1CC1)C(=O)O; Hyp = O=C(O)[C@@H]1C[C@@H](O)CN1; 2Thi = N[C@@H](Cc1cccs1)C(=O)O; Ac6c = NC1(C(=O)O)CCCCC1; azaGly = NNC(=O)O
# Target: T1, human kiss1 receptor (GPR54) (Homo sapiens, UniProt Q969F8)
# T1 construct: host or cells: NFAT-bla CHO-K1 cells (Chinese hamster ovary), purchased recombinant cell line
# T1 sequence (Q969F8 whole entry): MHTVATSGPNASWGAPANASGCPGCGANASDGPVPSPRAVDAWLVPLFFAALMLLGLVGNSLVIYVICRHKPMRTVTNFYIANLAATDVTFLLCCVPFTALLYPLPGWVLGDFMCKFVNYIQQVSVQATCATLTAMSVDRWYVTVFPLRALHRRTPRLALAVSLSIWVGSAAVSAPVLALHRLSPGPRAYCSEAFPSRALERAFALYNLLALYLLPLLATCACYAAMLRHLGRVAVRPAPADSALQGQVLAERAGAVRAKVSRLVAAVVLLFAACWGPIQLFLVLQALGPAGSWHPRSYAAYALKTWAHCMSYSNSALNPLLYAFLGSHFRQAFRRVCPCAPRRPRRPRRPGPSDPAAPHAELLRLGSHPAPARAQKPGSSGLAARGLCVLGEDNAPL
# Test: Kiss1 receptor (GPR54) binding activity of agonists, FRET detection in NFAT-bla CHO-K1 cells
# Type: cell-based
# Details: GPR54; measured according to the method of effect Embodiment 1; preliminary data; read-out: Preliminary measurement data (GPR54) EC50
row,SMILES,EC50 [nM]
1,"CNC(=N)NCCC[C@H](NC(=O)[C@H](CC(C)C)NC(=O)NNC(=O)[C@H](Cc1ccccc1)NC(=O)[C@@H](NC(=O)[C@H](CC(N)=O)NC(=O)[C@H](CC1CC1)NC(=O)[C@@H](Cc1ccc(O)cc1)NC(C)=O)[C@@H](C)O)C(=O)N[C@@H](Cc1c[nH]c2ccccc12)C(N)=O [YA-383, Ac-(D-Tyr)-Cpa-Asn-Thr-Phe-azaGly-Leu-Arg(Me)-Trp-NH2] (Ac-[dY][Ala(cPr)]NTF[azaGly]L[Arg(Me)]W-NH2)",0.074
2,"CNC(=N)NCCC[C@H](NC(=O)[C@H](CC(C)C)NC(=O)NNC(=O)[C@H](Cc1ccccc1)NC(=O)[C@@H](NC(=O)[C@H](CC(N)=O)NC(=O)[C@@H]1C[C@@H](O)CN1C(=O)[C@@H](Cc1ccc(Cl)cc1)NC(C)=O)[C@@H](C)O)C(=O)N[C@@H](Cc1c[nH]c2ccccc12)C(N)=O [YA-214, Ac-[D-Phe(4-Cl)]-Hyp-Asn-Thr-Phe-azaGly-Leu-Arg(Me)-Trp-NH2] (Ac-[dPhe(4-Cl)][Hyp]NTF[azaGly]L[Arg(Me)]W-NH2)",0.083
3,"CNC(=N)NCCC[C@H](NC(=O)[C@H](CC(C)C)NC(=O)NNC(=O)[C@H](Cc1ccccc1)NC(=O)C1(NC(=O)[C@H](CC(N)=O)NC(=O)[C@@H]2C[C@@H](O)CN2C(=O)[C@@H](Cc2ccc(O)cc2)NC(C)=O)CCCCC1)C(=O)N[C@@H](Cc1c[nH]c2ccccc12)C(N)=O [YA-387, Ac-(D-Tyr)-Hyp-Asn-A6c-Phe-azaGly-Leu-Arg(Me)-Trp-NH2] (Ac-[dY][Hyp]N[Ac6c]F[azaGly]L[Arg(Me)]W-NH2)",0.041
4,"CNC(=N)NCCC[C@H](NC(=O)[C@H](CC(C)C)NC(=O)NNC(=O)[C@H](Cc1ccccc1)NC(=O)[C@@H](NC(=O)[C@H](CC(N)=O)NC(=O)C1(NC(C)=O)CCCCC1)[C@@H](C)O)C(=O)N[C@@H](Cc1c[nH]c2ccccc12)C(N)=O [YA-266, Ac-A6c-Asn-Thr-Phe-azaG-Leu-Arg(Me)-Trp-NH2] (Ac-[Ac6c]NTF[azaGly]L[Arg(Me)]W-NH2)",0.32
5,"CNC(=N)NCCC[C@H](NC(=O)[C@H](CC(C)C)NC(=O)NNC(=O)[C@H](Cc1ccccc1)NC(=O)[C@@H](NC(=O)[C@H](CC(N)=O)NC(=O)[C@@H]1C[C@@H](O)CN1C(=O)[C@@H](Cc1ccc(O)cc1)NC(C)=O)[C@@H](C)O)C(=O)N[C@@H](Cc1ccc2ccccc2c1)C(N)=O [YA-81, Ac-D-Tyr-Hyp-Asn-Thr-Phe-azaGly-Leu-Arg(Me)-2Nal-NH2] (Ac-[dY][Hyp]NTF[azaGly]L[Arg(Me)][2Nal]-NH2)",0.011
6,"CNC(=N)NCCC[C@H](NC(=O)[C@H](CC(C)C)NC(=O)NNC(=O)[C@H](Cc1ccccc1)NC(=O)[C@H](Cc1cccs1)NC(=O)[C@H](CC(N)=O)NC(=O)[C@@H]1C[C@@H](O)CN1C(=O)[C@@H](Cc1ccc(O)cc1)NC(C)=O)C(=O)N[C@@H](Cc1c[nH]c2ccccc12)C(N)=O [YA-144, Ac-(D-Tyr)-Hyp-Asn-Thi-Phe-azaGly-Leu-Arg(Me)-Trp-NH2] (Ac-[dY][Hyp]N[2Thi]F[azaGly]L[Arg(Me)]W-NH2)",0.201
7,"CNC(=N)NCCC[C@H](NC(=O)[C@H](CC(C)C)NC(=O)[C@H](Cc1cscn1)NC(=O)[C@H](Cc1ccccc1)NC(=O)[C@@H](NC(=O)[C@H](CC(N)=O)NC(=O)[C@@H]1C[C@@H](O)CN1C(=O)[C@@H](Cc1ccc(O)cc1)NC(C)=O)[C@@H](C)O)C(=O)N[C@@H](Cc1c[nH]c2ccccc12)C(N)=O [YA-357, Ac-(D-Tyr)-Hyp-Asn-Thr-Phe-Beta-(thiazoly-4-yl)-L-Ala-Leu-Arg(Me)-Trp-NH2] (Ac-[dY][Hyp]NTF[Ala(4-thiazolyl)]L[Arg(Me)]W-NH2)",0.3
8,"CNC(=N)NCCC[C@H](NC(=O)[C@H](CC(C)C)NC(=O)NNC(=O)[C@H](Cc1ccccc1)NC(=O)[C@@H](NC(=O)[C@H](CC(N)=O)NC(=O)[C@@H]1C[C@@H](O)CN1C(=O)[C@H](Cc1ccc(F)cc1)NC(C)=O)[C@@H](C)O)C(=O)N[C@@H](Cc1c[nH]c2ccccc12)C(N)=O [YA-71, Ac-Phe(4-F)-Hyp-Asn-Thr-Phe-azaGly-Leu-Arg(Me)-Trp-NH2] (Ac-[Phe(4-F)][Hyp]NTF[azaGly]L[Arg(Me)]W-NH2)",0.058

# Results, then the compound that gave them:
row,EC50 [nM],SMILES
1,0.051,"CCCCCCCCCCCCCCCCSC1CC(=O)N(CCOCCOCCOCCOCCOCCOCCOCCOCCC(=O)NCC(=O)NCC(=O)N[C@H](Cc2ccc(O)cc2)C(=O)N2C[C@H](O)C[C@H]2C(=O)N[C@@H](CC(N)=O)C(=O)N[C@H](C(=O)N[C@@H](Cc2ccccc2)C(=O)NNC(=O)N[C@@H](CC(C)C)C(=O)N[C@@H](CCCNC(=N)NC)C(=O)N[C@@H](Cc2c[nH]c3ccccc23)C(N)=O)[C@@H](C)O)C1=O (stereo partly drawn) [YA-368, M10 [Hexadecyl-S-maleimide-PEG8, G43, G44, D-Tyr45, Hyp46, des47, T49, AzaGly51, R(Me)53, W54]] (X13-GG[dY][Hyp]NTF[azaGly]L[Arg(Me)]W-NH2)"
2,0.103,"CCCCCCCCCCCCCCCCc1cn(CCOCCOCCOCCOCCOCCOCCOCCOCCC(=O)NCC(=O)NCC(=O)N[C@H](Cc2ccc(O)cc2)C(=O)N2C[C@H](O)C[C@H]2C(=O)N[C@@H](CC(N)=O)C(=O)N[C@H](C(=O)N[C@@H](Cc2ccccc2)C(=O)NNC(=O)N[C@@H](CC(C)C)C(=O)N[C@@H](CCCNC(=N)NC)C(=O)N[C@@H](Cc2c[nH]c3ccccc23)C(N)=O)[C@@H](C)O)nn1 [YA-367, M10 [Hexadecyl-1,2,3-Triazole-PEG8, G43, G44, D-Tyr45, Hyp46, des47, T49, AzaGly51, R(Me)53, W54]] (X8-GG[dY][Hyp]NTF[azaGly]L[Arg(Me)]W-NH2)"
3,0.045,"CNC(=N)NCCC[C@H](NC(=O)[C@H](CC(C)C)NC(=O)NNC(=O)[C@H](Cc1ccccc1)NC(=O)[C@@H](NC(=O)[C@H](CC(N)=O)NC(=O)[C@@H]1C[C@@H](O)CN1C(=O)[C@@H](Cc1ccc(O)cc1)NC(=O)CCOCCOCCOCCOCCOCCOCCOCCOCCNC(C)=O)[C@@H](C)O)C(=O)N[C@@H](Cc1c[nH]c2ccccc12)C(N)=O [YA-151, Ac-PEG8-(D-Tyr)-Hyp-Asn-Thr-Phe-azaGly-Leu-Arg (Me)-Trp-NH2] (Ac-[PEG8][dY][Hyp]NTF[azaGly]L[Arg(Me)]W-NH2)"

# Same assay, conditions: human kiss1 receptor (GPR54), NFAT-bla CHO-K1 cells, FRET; preliminary data; method of effect Embodiment 1; read-out: Preliminary measurement data (GPR54) EC50
row,EC50 [nM],SMILES
1,26,"CNC(=N)NCCC[C@H](NC(=O)[C@H](CC(C)C)NC(=O)[C@@H]1C[C@@H](O)CN1C(=O)[C@H](Cc1ccccc1)NC(=O)[C@@H](NC(=O)[C@H](CC(N)=O)NC(=O)C1(NC(=O)[C@@H](Cc2ccc(O)cc2)NC(C)=O)CCCCC1)[C@@H](C)O)C(=O)N[C@@H](Cc1c[nH]c2ccccc12)C(N)=O [YA-245, Ac-(D-Tyr)-A6c-Asn-Thr-Phe-Hyp-Leu-Arg(Me)-Trp-NH2] (Ac-[dY][Ac6c]NTF[Hyp]L[Arg(Me)]W-NH2)"
2,2.86,"CNC(=N)NCCC[C@H](NC(=O)[C@H](CC(C)C)NC(=O)NNC(=O)[C@H](Cc1ccccc1)NC(=O)[C@@H](NC(=O)[C@H](CC(N)=O)NC(=O)[C@@H]1C[C@@H](O)CN1C(=O)[C@@H](Cc1ccc(O)cc1)NC(C)=O)[C@@H](C)O)C(=O)N[C@@H](Cc1c[nH]c2ccccc12)C(=O)O [YA-246, Ac-(D-Tyr)-Hyp-Asn-Thr-Phe-azaGly-Leu-Arg(Me)-Trp-OH] (Ac-[dY][Hyp]NTF[azaGly]L[Arg(Me)]W-OH)"

# Test system: not listed separately
# Test: Plasma stability, LC-MS/MS
# Type: in vitro ADME
# Details: rat plasma, 37° C., final concentration 500 ng/ml, time points 0 minutes, 1, 2 and 4 hours; calculated half-life; read-out: Rat plasma (T½ (h)) (converted)
# Experimental: Effect Embodiment 2 Experimental Data on Plasma Stability of Some Compounds
# 1. Preparation of 50 mM Phosphate Buffer:
# The 5.750 g Na2HPO4, 1.141 g NaH2PO4. and 4.095 g NaCl (Shanghai Titan) weighed was dissolved in 1000 mL ultrapure water and the pH was adjusted to 7.4 to give 50 mM phosphate buffer containing 70 mM NaCl. The prepared phosphoric acid buffer solution was stored in the refrigerator at 4° C. and was valid for one week.
# 2. Preparation of compound stock solution:
# 1). 5 mg/mL of test compound: 5 mg of compound was weighted and dissolved in 1 mL of DMSO.
# 2). 20 mM control: 2.728 mg of Fuka was dissolved in 0.5 mL of DMSO. 3.878 mg of benzalkonium bromide was dissolved in 0.5 mL of DMSO (Amresco).
# 3. Preparation of experimental plasma:
# The frozen plasma (human: Shanghai wise chemistry; Rats and mice: Shanghai Sciple-Bikai; Dogs and monkeys: Suzhou Xishan Zhongke) were taken out of the −80° C. refrigerator, immediately placed in a 37° C. water bath, slightly shaken to melt it, then the thawed plasma was poured into a centrifuge tube, centrifuged at 3000 rpm for 8 min, and the supernatant was taken for experiments. The pH value of plasma was detected by a pH Meter & Sensor (METTLER TOLEDO). Only plasma with a pH value between 7.4 and 8 was used in the experiment. The plasma was placed on an ice bath for later use.
# 4. Preparation of administration solution:
# 1). 125 µg/ml test compound solution: 5 μL of 5 mg/mL test compound (see step 2) was added into 195 μL DMSO; 500 μM control solution: 20 mM control stock solution (see step 2) was added to 195 μL DMSO.
# 2). 0.5% BSA phosphate buffer solution: 0.05 g BSA was added to 10 mL phosphate buffer solution (see step 1);
# 3). 5 µg/ml of test compound administration solution: 40 μL of 125 μg/mL of test compound solution was added into 960 μL 0.5% BSA phosphate buffer solution, stirred and mixed evenly, and the administration solution was preheated in a 37° C. water bath for 5 minutes.
# 20 μM reference substance administration solution: 40 μL of 500 μM reference substance administration solution was added into 960 μL 0.5% BSA phosphate buffer solution, stirred and mixed evenly, and the administration solution was preheated in a 37° C. water bath for 5 minutes.
# 5. 10 μL of 5 μg/mL of the test compound and 20 μM of the control substance administration solution were respectively added to the wells set at different time points (0 minutes, 1 hour, 2 hours and 4 hours) on the 96-well plate, and the number of duplicate samples was 3.
# 6. 500 μL of ACN (IS) containing 5% FA was added to the well set at 0 minute hour, then 90 μL of plasma was added, after mixing, sealing film was pasted and placed at 4° C. (number of duplicate samples was 3).
# 7. 90 μL of plasma was added to the wells with set time points of 1 hour, 2 hours and 4 hours respectively, the number of duplicate samples was 3, and timing was started (the final concentration of the test compound was 500 ng/ml; The control was 2 μM).
# 9. All samples (0 minutes, 1 hour, 2 hours and 4 hours) at different time points on a 96-well plate were shaken for 10 minutes at 600 rpm/min on an oscillator (MTS 2/4, IKA), and then the samples were centrifuged for 15 minutes at 5594×g in a centrifuge (Multifuge×3R, thermo Fisher).
# 10. 150 μL of supernatant was taken from the centrifuged sample and sent to LC-MS/MS for analysis (conventional polypeptide LC-MS/MS analysis method).
row,half-life at 500 ng/ml [h],SMILES
1,4.26,"CCCCCCCCCCCC(=O)NCCOCCOCCOCCOCCOCCSC1CC(=O)N(CCCC(=O)N[C@H](Cc2ccc(O)cc2)C(=O)N2C[C@H](O)C[C@H]2C(=O)N[C@@H](CC(N)=O)C(=O)N[C@H](C(=O)N[C@@H](Cc2ccccc2)C(=O)NNC(=O)N[C@@H](CC(C)C)C(=O)N[C@@H](CCCNC(=N)NC)C(=O)N[C@@H](Cc2c[nH]c3ccccc23)C(N)=O)[C@@H](C)O)C1=O (stereo partly drawn) [YA-325, Dodecanoy-(NH-PEG5-CH2CH2S)-(maleimide-butanoyl-)-(D-Tyr)-Hyp-Asn-Thr-Phe-azaG-Leu-Arg(Me)-Trp-NH2] (X1-[dY][Hyp]NTF[azaGly]L[Arg(Me)]W-NH2)"
